This passage reports IC50, Efficacy and EC50 results from ChEMBL document CHEMBL1130772, “New nonsteroidal androgen receptor modulators based on 4-(trifluoromethyl)-2(1H)-pyrrolidino[3,2-g] quinolinone” (Bioorg Med Chem Lett, 1998).

One assay concerns the target T1, Mineralocorticoid receptor (Homo sapiens, UniProt P08235).
T1 sequence (P08235 whole entry): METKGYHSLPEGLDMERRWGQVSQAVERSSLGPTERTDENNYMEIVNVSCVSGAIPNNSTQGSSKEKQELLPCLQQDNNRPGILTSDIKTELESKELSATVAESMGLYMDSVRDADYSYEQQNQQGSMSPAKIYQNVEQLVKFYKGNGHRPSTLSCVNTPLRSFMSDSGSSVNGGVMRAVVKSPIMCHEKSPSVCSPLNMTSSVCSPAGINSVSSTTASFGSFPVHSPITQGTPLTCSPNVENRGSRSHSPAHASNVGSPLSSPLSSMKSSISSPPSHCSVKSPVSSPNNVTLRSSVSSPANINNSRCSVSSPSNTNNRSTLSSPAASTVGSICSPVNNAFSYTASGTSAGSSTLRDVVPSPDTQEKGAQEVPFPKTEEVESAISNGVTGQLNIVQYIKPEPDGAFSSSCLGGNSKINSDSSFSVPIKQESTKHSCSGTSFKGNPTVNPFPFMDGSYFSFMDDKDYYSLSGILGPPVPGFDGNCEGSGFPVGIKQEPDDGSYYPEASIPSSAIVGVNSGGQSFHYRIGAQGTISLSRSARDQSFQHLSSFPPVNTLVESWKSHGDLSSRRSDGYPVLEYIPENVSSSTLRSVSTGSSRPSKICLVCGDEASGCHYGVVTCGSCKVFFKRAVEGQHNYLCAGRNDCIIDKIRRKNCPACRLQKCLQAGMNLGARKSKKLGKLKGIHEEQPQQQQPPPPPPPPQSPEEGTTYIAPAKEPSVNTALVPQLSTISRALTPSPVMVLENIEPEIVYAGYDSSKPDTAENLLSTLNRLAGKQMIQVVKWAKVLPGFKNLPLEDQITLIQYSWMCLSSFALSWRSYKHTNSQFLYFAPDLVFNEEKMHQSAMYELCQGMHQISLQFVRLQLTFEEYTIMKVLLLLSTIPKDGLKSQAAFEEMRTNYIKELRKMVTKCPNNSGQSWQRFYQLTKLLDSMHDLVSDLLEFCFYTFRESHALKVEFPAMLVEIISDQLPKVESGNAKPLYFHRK
Put plainly: Antagonistic activity against hMR in co-transfected CV-1 cell. Type of assay: functional, cell-based.
Settings: not given; call rule not given here
Consider `CC1(C)CCC[C@]2(C)c3cc4c(C(F)(F)F)cc(O)nc4cc3N[C@H]12`, for which 0.57 µM corresponded to half-maximal inhibition (IC50).
On the same count and under the same terms, next, `C[C@H]1CC[C@H]2Nc3cc4c(cc3[C@H]2C1)c(C(F)(F)F)cc(=O)n4C`: more than 10 µM; `CN1c2cc3c(cc2[C@H]2CCCC[C@H]21)c(C(F)(F)F)cc(=O)n3C`: more than 10 µM.

The target in a further assay is T2, Progesterone receptor (Homo sapiens) (UniProt P06401).
T2 sequence (whole entry): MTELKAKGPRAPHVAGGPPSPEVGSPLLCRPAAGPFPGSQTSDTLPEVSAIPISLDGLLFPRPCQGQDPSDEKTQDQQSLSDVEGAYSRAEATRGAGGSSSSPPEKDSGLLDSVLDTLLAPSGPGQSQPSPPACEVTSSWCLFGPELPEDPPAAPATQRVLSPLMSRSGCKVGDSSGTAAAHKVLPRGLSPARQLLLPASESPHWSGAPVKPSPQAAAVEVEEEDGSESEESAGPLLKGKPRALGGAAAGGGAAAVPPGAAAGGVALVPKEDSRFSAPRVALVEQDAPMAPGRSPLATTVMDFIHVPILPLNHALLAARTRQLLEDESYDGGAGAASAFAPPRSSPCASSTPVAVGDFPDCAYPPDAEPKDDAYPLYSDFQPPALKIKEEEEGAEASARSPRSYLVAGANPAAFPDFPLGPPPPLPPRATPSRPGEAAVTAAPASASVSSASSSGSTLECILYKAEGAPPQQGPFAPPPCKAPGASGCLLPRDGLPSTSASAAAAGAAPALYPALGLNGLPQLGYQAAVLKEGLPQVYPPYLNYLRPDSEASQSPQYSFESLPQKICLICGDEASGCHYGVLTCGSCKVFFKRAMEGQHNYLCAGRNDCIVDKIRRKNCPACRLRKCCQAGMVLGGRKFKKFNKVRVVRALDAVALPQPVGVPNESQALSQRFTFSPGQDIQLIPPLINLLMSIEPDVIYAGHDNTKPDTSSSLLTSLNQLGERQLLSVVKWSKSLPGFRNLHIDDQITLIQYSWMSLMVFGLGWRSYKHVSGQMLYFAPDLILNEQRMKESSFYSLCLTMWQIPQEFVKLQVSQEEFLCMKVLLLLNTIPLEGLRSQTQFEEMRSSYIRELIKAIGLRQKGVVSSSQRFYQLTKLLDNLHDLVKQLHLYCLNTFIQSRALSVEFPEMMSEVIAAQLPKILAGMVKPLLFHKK
Kind of assay: (§1) Antagonistic activity against hPR in co-transfected CV-1 cell. Type of assay: functional, cell-based.
Settings: not given
`CC1(C)CCC[C@]2(C)c3cc4c(C(F)(F)F)cc(O)nc4cc3N[C@H]12`: the Efficacy was 96%.
For the compound `C[C@H]1CC[C@H]2Nc3cc4c(cc3[C@H]2C1)c(C(F)(F)F)cc(=O)n4C`, the Efficacy was determined as 97%.
Still for that read-out and setting: in the case of `CN1c2cc3c(cc2[C@H]2CCCC[C@H]21)c(C(F)(F)F)cc(=O)n3C` it was 98%.

Another assay addresses T3, Progesterone receptor (Homo sapiens, UniProt P06401).
T3 sequence (P06401 whole entry): T2 sequence (whole entry)
The assay is described as §1. Type of assay: functional, cell-based.
Settings: not given
In turn, `CC1(C)CCC[C@]2(C)c3cc4c(C(F)(F)F)cc(O)nc4cc3N[C@H]12` had an IC50 of 430 nM.
Still for that read-out and setting: next, `C[C@H]1CC[C@H]2Nc3cc4c(cc3[C@H]2C1)c(C(F)(F)F)cc(=O)n4C`: 380 nM; `CN1c2cc3c(cc2[C@H]2CCCC[C@H]21)c(C(F)(F)F)cc(=O)n3C`: 1000 nM.

The next assay has as its target T4, Androgen receptor (Homo sapiens, UniProt P10275).
T4 sequence (P10275 whole entry): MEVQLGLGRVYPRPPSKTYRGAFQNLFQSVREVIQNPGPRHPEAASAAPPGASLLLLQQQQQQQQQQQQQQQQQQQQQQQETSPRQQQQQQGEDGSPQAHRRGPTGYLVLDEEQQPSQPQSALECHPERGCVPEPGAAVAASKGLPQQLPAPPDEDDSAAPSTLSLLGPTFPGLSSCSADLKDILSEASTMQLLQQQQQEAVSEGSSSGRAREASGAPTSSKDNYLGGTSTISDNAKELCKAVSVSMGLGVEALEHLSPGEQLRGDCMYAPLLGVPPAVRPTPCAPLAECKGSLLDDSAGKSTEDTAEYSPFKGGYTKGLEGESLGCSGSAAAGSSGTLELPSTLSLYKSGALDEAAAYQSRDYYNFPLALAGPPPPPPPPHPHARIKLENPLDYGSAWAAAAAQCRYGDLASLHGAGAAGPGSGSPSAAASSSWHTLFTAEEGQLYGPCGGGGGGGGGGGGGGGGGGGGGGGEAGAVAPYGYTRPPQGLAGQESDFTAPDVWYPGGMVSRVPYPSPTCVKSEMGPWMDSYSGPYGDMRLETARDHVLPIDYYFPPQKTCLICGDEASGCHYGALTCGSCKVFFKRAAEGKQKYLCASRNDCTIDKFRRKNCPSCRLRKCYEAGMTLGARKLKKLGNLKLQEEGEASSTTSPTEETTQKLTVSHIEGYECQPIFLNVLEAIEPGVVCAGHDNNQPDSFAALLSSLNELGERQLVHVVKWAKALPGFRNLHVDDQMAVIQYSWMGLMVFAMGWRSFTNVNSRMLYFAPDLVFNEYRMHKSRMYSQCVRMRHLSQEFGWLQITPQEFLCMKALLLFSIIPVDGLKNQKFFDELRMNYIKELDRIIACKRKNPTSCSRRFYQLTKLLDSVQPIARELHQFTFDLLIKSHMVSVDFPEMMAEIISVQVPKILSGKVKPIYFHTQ
Settings: not given
The compound `CC1(C)CCC[C@]2(C)c3cc4c(C(F)(F)F)cc(O)nc4cc3N[C@H]12` had a concentration for half-maximal inhibition (IC50) of 51 nM.
Same read-out and setting: in the case of `C[C@H]1CC[C@H]2Nc3cc4c(cc3[C@H]2C1)c(C(F)(F)F)cc(=O)n4C` it was 48 nM; in that of `CN1c2cc3c(cc2[C@H]2CCCC[C@H]21)c(C(F)(F)F)cc(=O)n3C`, 36 nM.

Another assay deals with T4, Androgen receptor. The following applies: cv-1.
Description: Agonistic activity against human androgen receptor (hAR) in co-transfected CV-1 cell
In the case of `CC1(C)CCC[C@]2(C)c3cc4c(C(F)(F)F)cc(O)nc4cc3N[C@H]12`, the EC50 result is “Not Active”.
Regarding `C[C@H]1CC[C@H]2Nc3cc4c(cc3[C@H]2C1)c(C(F)(F)F)cc(=O)n4C`, the EC50 result is reported as “Not Active”.
In the case of `CN1c2cc3c(cc2[C@H]2CCCC[C@H]21)c(C(F)(F)F)cc(=O)n3C`, the EC50 entry was “Not Active”.
